Experimental data as given in patent US20220356169A1, “TETRAZINES FOR HIGH CLICK RELEASE SPEED AND YIELD” (priority 2019, published 2022).
Marks after values point to notes of the source that are not given here.

What was measured:
[1] = Cell proliferation assay (MTT); assay type: cell-based; details: human, 3 days incubation, mean ± SEM (n = 6), read-out: LS174T cell viability (%); for viability at 72 h, 0.01 μM: 0.01 μM activator; for viability at 72 h, 0.1 μM: 0.1 μM activator; for viability at 72 h, 1 μM: 1 μM activator
Experimental: The human colon carcinoma LS174T cell line was obtained from the American Type Culture Collection and cultured in RPMI-1640 medium supplemented with 2 mM glutamine and 10% heat inactivated fetal calf serum. Twenty-four hours prior to the experiment, the cells were plated in 96-well plates at a 5000 cells/well density. The cells were then incubated with serial dilutions (10 nM-1 μM; n=6) of activators 2.7, 2.8, 2.14, 2.16, 2.17, 2.18 and 2.19 in culture medium for 72h at 37° C. The % cell proliferation was assessed by an MTT assay, in comparison to cells incubated in culture medium without activator. No toxicity was observed when the LS174T cells were incubated with the tested activators (and possible metabolites formed in the presence of serum) for 3-days at a 0.01-1 μM activator concentration.

ADC AVP0458-TCO-MMAE = experiment: Triggered drug (MMAE) release from ADC in 50% mouse plasma, HPLC-SIM-MS; details: for MMAE release from ADC AVP0458-TCO-MMAE, Release (%) / MMAE release level, in words: 50% mouse plasma, 37° C.; for MMAE release level, in words: after 24h incubation
Experimental: In a 1.5 mL vial, the following was combined: 650 μL mouse plasma, 600 μL PBS, 20 μL ADC (1.62 μg/μL in PBS) and 7.5 μL d8-MMAE solution (0.167 μg/μL, internal standard). Next, aliquots of 20 μL were prepared to which 5.2 μL of a tetrazine solution (0.25 mM in 1:1 DMSO/H2O) was added and the solution was incubated at 37° C. At various times, 100 μL of cold MeCN was added to the aliquot and the mixture was vortexed, stored at 4° C. for 30 min. and centrifuged. 20 μL of supernatant was taken and combined with 100 μL of 1% formic acid (aq) solution. This sample was analysed with HPLC-SIM-MS to quantify the ratio of free MMAE and d8-MMAE, which is a measure of the release yield.

[2] = Second-order rate constant of the IEDDA reaction with TCO 3.2, UV-Vis under second-order conditions in MeCN; assay type: physicochemical; details: MeCN at 20° C.; n = 1
Experimental: The second-order rate constant of the IEDDA reaction between model TCO 3.2 and activators 2.7 or 2.8 in MeCN at 20° C. was determined (n=1) by UV-Vis spectrometry under second-order conditions. A cuvette was filled with a solution of activator (3 mL 0.083 mM in MeCN), and equilibrated at 20° C. Next, a solution of TCO 3.2 (10.0 μL, 25 mM in DMSO) was added. The absorption at 540 nm was measured every second in a time course experiment. From the decay of this absorption, the conversion x was calculated. The second-order rate constant k2 was determined from the slope of the curve of a plot of 1/c-1/c0 versus time. The second-order rate constant of the IEDDA reaction between model TCO 3.2 and activators 2.7, 2.8, 2.14, 2.16, or 2.17 in 25% MeCN/PBS at 20° C. was determined (n=5) by stopped-flow UV-Vis spectrometry under pseudo first-order conditions. Tetrazine solutions (0.25 mM in 25% MeCN/PBS) and TCO 3.2 (3.45 mM in 25% MeCN/PBS) were mixed in a volume ratio of 1:1, resulting in a concentration of 0.125 mM and 1.73 mM, respectively. The absorption at 520 nm was measured every 50 ms, and from the decay of this absorption, the pseudo first-order rate constant k1′ was determined by a nonlinear Simplex regression analysis of the data points using BioKine software. The second-order rate constant k2 was calculated: k2=k1′/c,TCO. […]

[3] = Activator stability in PBS at rt (UV decay at 520 nm); assay type: physicochemical; details: mean ± SD (n = 3)
Experimental: The assessment of activator stability was performed in PBS at rt. Solutions in DMSO (2.5 mM, 20 μL) were diluted with PBS (3.00 mL), filtered, and incubated at rt. The decrease of the absorption band at 520 nm was monitored using UV spectroscopy.

[4] = Second-order rate constant of the IEDDA reaction with TCO 3.2, stopped-flow UV-Vis, pseudo first-order conditions; assay type: physicochemical; details: 25% MeCN/PBS at 20° C.; mean ± SD (n = 5)
Experimental: The second-order rate constant of the IEDDA reaction between model TCO 3.2 and activators 2.7 or 2.8 in MeCN at 20° C. was determined (n=1) by UV-Vis spectrometry under second-order conditions. A cuvette was filled with a solution of activator (3 mL 0.083 mM in MeCN), and equilibrated at 20° C. Next, a solution of TCO 3.2 (10.0 μL, 25 mM in DMSO) was added. The absorption at 540 nm was measured every second in a time course experiment. From the decay of this absorption, the conversion x was calculated. The second-order rate constant k2 was determined from the slope of the curve of a plot of 1/c-1/c0 versus time. The second-order rate constant of the IEDDA reaction between model TCO 3.2 and activators 2.7, 2.8, 2.14, 2.16, or 2.17 in 25% MeCN/PBS at 20° C. was determined (n=5) by stopped-flow UV-Vis spectrometry under pseudo first-order conditions. Tetrazine solutions (0.25 mM in 25% MeCN/PBS) and TCO 3.2 (3.45 mM in 25% MeCN/PBS) were mixed in a volume ratio of 1:1, resulting in a concentration of 0.125 mM and 1.73 mM, respectively. The absorption at 520 nm was measured every 50 ms, and from the decay of this absorption, the pseudo first-order rate constant k1′ was determined by a nonlinear Simplex regression analysis of the data points using BioKine software. The second-order rate constant k2 was calculated: k2=k1′/c,TCO. As expected for a cycloaddition reaction, the reactivity in PBS is much higher than in MeCN, and importantly the tetrazines of the invention are at least 1 order of magnitude more reactive than the known and high-releasing 3,6-bismethyl-tetrazine (2.17), while giving similar release yields (see Example 7).

LS174T xenografts [5] = experiment: MMAE measurement in tumors; assay type: in vivo, mice
Experimental: Female nude Balb/C mice were subcutaneously inoculated ca. 1×10^6 LS174T cells in the hind limb. Biodistribution studies started when the tumors reached 0.1-0.2 cm^3 size. Experiments were carried out to evaluate the reactivity between the TCO Trigger on tumor-bound ADC and activators 2.7, 2.8, 2.14 and 2.16 in LS174T xenografts, as previously performed for other activators [Rossin et al Nature Communications 2018, 9, 1484]. The activators were administered at a 20- to 100-lower dose than that used in previous activation and therapy studies (ca. 0.335 mmol/kg). […] Groups of tumor bearing mice (n=4) were injected with ^125I-labeled ADC (2 mg/kg) followed 48 h later by the activators (dose 1×: ca. 3.3 μmol/kg; dose 5×: ca. 16.7 μmol/kg) and, after 1 h, by [^111In]In-2.20 (ca. 0.33 μmol/kg). One group was injected with the same amount of ^125I-labeled ADC followed only by ^111In-2.20 49 h later. One group was injected only with ^111In-2.20 (non-specific probe binding). All mice were euthanized 23 h post-probe injection and the ^125I and ^111In uptakes in tumors were measured by γ-counting.
The concentration of MMAE released in tumors was measured as previously reported [Rossin et al Nature Communications 2018, 9, 1484]. […] For this reason, activator 2.16 was selected for a therapy study in combination with the click-cleavable ADC. At the doses of tc-ADC (4 mg/kg) and 2.16 (dose 10×; 33.5 μmol/kg) used for therapy study, a high level of 339±45 nM free MMAE was detected in tumors.

LS174T xenografts [6] = experiment: Therapy study in mice with LS174T xenografts; assay type: in vivo
Experimental: Groups of 10 female nude Balb/C mice were s.c. inoculated ca. 1×10^6 LS174T cells in the hindlimb and the therapy study started when the tumors became palpable (5-11 days after tumor cell inoculation). One group was administered four cycles (one cycle every 4 days) of tc-ADC (ca. 4 mg/kg) followed by activator 2.16 (ca. 33.5 μmol/kg) 48 later. Control groups received four cycles of ADC alone, activator alone, or vehicle. Tumor sizes and body weights were measured 2-3 times per week. […] On the contrary, all control mice were euthanized within 3 weeks from the beginning of the treatment due to large tumor size (>1.5 gr) or poor health conditions with a 15.5-17.5 days median survival. Overall, the repeated treatments were tolerated well by the mice, with no overt signs of hematological toxicity that could be attributed to the use of ADC and activator, either in combination or alone.

[7] = 2 min after reaction with activator

| SMILES | viability at 72 h, 0.01 μM [1] [%] | viability at 72 h, 0.1 μM [1] [%] | viability at 72 h, 1 μM [1] [%] | MMAE release from ADC AVP0458-TCO-MMAE, Release (%) (ADC AVP0458-TCO-MMAE; [7]) | MMAE release from ADC AVP0458-TCO-MMAE, Release (%) (ADC AVP0458-TCO-MMAE; 10 min) | MMAE release from ADC AVP0458-TCO-MMAE, Release (%) (ADC AVP0458-TCO-MMAE; 1 h) | MMAE release from ADC AVP0458-TCO-MMAE, Release (%) (ADC AVP0458-TCO-MMAE; 5 h) | MMAE release from ADC AVP0458-TCO-MMAE, Release (%) (ADC AVP0458-TCO-MMAE; 24 h, mean ± SD (n = 3)) | MMAE release level, in words (ADC AVP0458-TCO-MMAE) | MMAE release speed, in words (ADC AVP0458-TCO-MMAE; compared with 2.17) | Calculated k2 values for the reaction between tetrazine activators and TCO 3.2 in MeCN [2] [M⁻¹ s⁻¹] | half-life at 16.6 µM [3] [h] | Calculated k2 values for the reaction between tetrazine activators and TCO 3.2 in PBS [4] [M⁻¹ s⁻¹] | MMAE release in tumors, comparison of activators (LS174T xenografts [5]; 5× dose of activator) | free MMAE in tumors, comparison of activators (LS174T xenografts [5]; 24 h after administration of activator at dose 1×) | time for which growth of LS174T tumors was completely inhibited (LS174T xenografts [6]; four cycles of tc-ADC (ca. 4 mg/kg) followed by activator 2.16 (ca. 33.5 μmol/kg) 48 later) | median overall survival (LS174T xenografts [6]; four cycles, one cycle every 4 days, treated group: tc-ADC ca. 4 mg/kg + 2.16 ca. 33.5 μmol/kg, controls: ADC alone, activator alone, or vehicle) [days] |
| --- | --- | --- | --- | --- | --- | --- | --- | --- | --- | --- | --- | --- | --- | --- | --- | --- | --- |
| c1cc(-c2nnc(-c3ccncc3)nn2)ccn1 [2.19, 3,6-bis(4-pyridinyl)-tetrazine, reference compound] | 87 ± 2.6 | 88.7 ± 2.5 | 91.3 ± 3 | – | – | – | – | – | – | – | – | – | – | – | – | – | – |
| c1ccc(-c2nnc(-c3ccccn3)nn2)nc1 [2.18, 3,6-bis(2-pyridinyl)-tetrazine, reference compound] | 101 ± 3 | 101 ± 2.8 | 102 ± 3.6 | – | – | – | – | – | – | – | – | – | – | – | – | – | – |
| Oc1cnccc1-c1nnc(-c2ccncc2O)nn1 [2.8, 4,4′-(1,2,4,5-Tetrazine-3,6-diyl)bis(pyridin-3-ol)] | 96.9 ± 3.6 | 98.4 ± 3.6 | 93.9 ± 5.2 | 48.7 | 83.4 | 92.7 | 93.6 | 94.3 ± 1.3% | as high as that obtained with the less reactive 2.17 | faster | 10 | 6.5 ± 0.6 | 270 ± 11 | – | – | – | – |
| Nc1cccnc1-c1nnc(-c2ncccc2N)nn1 [2.1, 2,2′-(1,2,4,5-Tetrazine-3,6-diyl)bis(pyridin-3-amine)] | – | – | – | – | – | – | – | 32.1 ± 0.7^b % | – | – | – | – | – | – | – | – | – |
| O=C(CCCC(=O)Nc1cnccc1-c1nnc(-c2ccncc2NC(=O)CCCC(=O)NCCOCCOCCOCCOCCOCCOCCOCCOCCOCCO)nn1)NCCOCCOCCOCCOCCOCCOCCOCCOCCOCCO [2.16, N^1,N^1′-(4,4′-(1,2,4,5-Tetrazine-3,6-diyl)bis(pyridine-4,3-diyl))bis(N^5-(29-hydroxy-3,6,9,12,15,18,21,24,27-nonaoxanonacosyl)glutaramide)] | 105 ± 7.4 | 96.9 ± 3 | 93.9 ± 2.8 | 1.9 | 19.4 | 70.7 | 82.8 | 95.6 ± 0.6% | as high as that obtained with the less reactive 2.17 | – | – | 4.2 ± 0.1 | 519 ± 12 | significantly higher release | No difference | over 3 weeks | 42 |
